Assay results: ChEMBL document CHEMBL3885861, “Open TG-GATES”

Species on record: Rattus norvegicus
Test: Open TG-GATES - Regimen: Single
Type: toxicity, organism-based, Sprague-Dawley
Set-up: regimen Single, gender Male, age 6 weeks
Conditions: in vivo, po, 0 mg/kg, route gavage, dose level Control; for APTT / Bas / Eos / Fbg / Hb / Ht / Lym / MCH / MCHC / MCV / Mono / Neu / PT / Plat / RBC / Ret / WBC: tissue Blood; for KIDNEY_L / KIDNEY_R / KIDNEY_TOTAL: tissue Kidney; for LIVER: tissue Liver; for A/G / ALP / ALT / AST / BUN / CRE / Ca / Cl / DBIL / GLC / IP / K / LDH / Na / PL / RALB / TBIL / TC / TG / TP / gamma-GTP: tissue Plasma

CN(C)CCN(Cc1cccs1)c1ccccn1
TERMINAL_BW (3 h): 183.4 g
APTT (3 h): 20.4 s
Bas (3 h): 0%
Eos (3 h): 0.4%
Fbg (3 h): 308 mg/dL
Hb (3 h): 13.1 g/dL
Ht (3 h): 40.4%
Lym (3 h): 76.8%
MCH (3 h): 20.9 pg
MCHC (3 h): 32.5%
MCV (3 h): 64.2 fL
Mono (3 h): 2.4%
Neu (3 h): 20%
PT (3 h): 16.5 s
Plat (3 h): 124.4 x10_4/uL
RBC (3 h): 629.4 x10_4/ul
Ret (3 h): 7.8%
WBC (3 h): 76.5 x10_2/uL
KIDNEY_L (3 h): 0.8 g
KIDNEY_R (3 h): 0.9 g
KIDNEY_TOTAL (3 h): 1.7 g
LIVER (3 h): 8.4 g
A/G (3 h): 1.2
ALP (3 h): 1580.4 IU/L
ALT (3 h): 41.4 IU/L
AST (3 h): 72.8 IU/L
BUN (3 h): 14.4 mg/dL
CRE (3 h): 0.2 mg/dL
Ca (3 h): 10.3 mg/dL
Cl (3 h): 107.4 meq/L
DBIL (3 h): 0 mg/dL
GLC (3 h): 181.8 mg/dL
IP (3 h): 7.7 mg/dL
K (3 h): 4.2 meq/L
LDH (3 h): 227 IU/L
Na (3 h): 142.8 meq/L
PL (3 h): 127.6 mg/dL
RALB (3 h): 2.9 g/dL
TBIL (3 h): 0.008 mg/dL
TC (3 h): 70.4 mg/dL
TG (3 h): 42.6 mg/dL
TP (3 h): 5.3 g/dL
gamma-GTP (3 h): 1 IU/L
TERMINAL_BW (6 h): 186.2 g
APTT (6 h): 20.7 s
Bas (6 h): 0%
Eos (6 h): 0.4%
Fbg (6 h): 303 mg/dL
Hb (6 h): 12.6 g/dL
Ht (6 h): 38.6%
Lym (6 h): 84.6%
MCH (6 h): 21 pg
MCHC (6 h): 32.7%
MCV (6 h): 64.1 fL
Mono (6 h): 1.6%
Neu (6 h): 12.4%
PT (6 h): 17.2 s
Plat (6 h): 119.7 x10_4/uL
RBC (6 h): 603 x10_4/ul
Ret (6 h): 7.8%
WBC (6 h): 97.9 x10_2/uL
KIDNEY_L (6 h): 0.9 g
KIDNEY_R (6 h): 0.9 g
KIDNEY_TOTAL (6 h): 1.7 g
LIVER (6 h): 8.3 g
A/G (6 h): 1.2
ALP (6 h): 1742 IU/L
ALT (6 h): 37.4 IU/L
AST (6 h): 68.4 IU/L
BUN (6 h): 10.8 mg/dL
CRE (6 h): 0.2 mg/dL
Ca (6 h): 10 mg/dL
Cl (6 h): 106.2 meq/L
DBIL (6 h): 0 mg/dL
GLC (6 h): 174.2 mg/dL
IP (6 h): 9 mg/dL
K (6 h): 4.1 meq/L
LDH (6 h): 171.6 IU/L
Na (6 h): 141.8 meq/L
PL (6 h): 127.2 mg/dL
RALB (6 h): 2.9 g/dL
TBIL (6 h): 0.016 mg/dL
TC (6 h): 74.8 mg/dL
TG (6 h): 44.6 mg/dL
TP (6 h): 5.3 g/dL
gamma-GTP (6 h): 1 IU/L
TERMINAL_BW (9 h): 180.7 g
APTT (9 h): 20.7 s
Bas (9 h): 0%
Eos (9 h): 0.8%
Fbg (9 h): 296.8 mg/dL
Hb (9 h): 13 g/dL
Ht (9 h): 39.3%
Lym (9 h): 82.2%
MCH (9 h): 21.1 pg
MCHC (9 h): 33.1%
MCV (9 h): 63.9 fL
Mono (9 h): 1.6%
Neu (9 h): 14.8%
PT (9 h): 15.6 s
Plat (9 h): 121.1 x10_4/uL
RBC (9 h): 615.8 x10_4/ul
Ret (9 h): 7.7%
WBC (9 h): 69.3 x10_2/uL
KIDNEY_L (9 h): 0.8 g
KIDNEY_R (9 h): 0.8 g
KIDNEY_TOTAL (9 h): 1.6 g
LIVER (9 h): 7.3 g
A/G (9 h): 1.2
ALP (9 h): 1371.8 IU/L
ALT (9 h): 33.8 IU/L
AST (9 h): 66.4 IU/L
BUN (9 h): 11.2 mg/dL
CRE (9 h): 0.2 mg/dL
Ca (9 h): 10.1 mg/dL
Cl (9 h): 106.8 meq/L
DBIL (9 h): 0 mg/dL
GLC (9 h): 177.8 mg/dL
IP (9 h): 9.6 mg/dL
K (9 h): 4.2 meq/L
LDH (9 h): 171.2 IU/L
Na (9 h): 142.4 meq/L
PL (9 h): 133.2 mg/dL
RALB (9 h): 2.9 g/dL
TBIL (9 h): 0.018 mg/dL
TC (9 h): 73.4 mg/dL
TG (9 h): 59.4 mg/dL
TP (9 h): 5.3 g/dL
gamma-GTP (9 h): 1 IU/L
TERMINAL_BW (24 h): 200.8 g
APTT (24 h): 20.1 s
Bas (24 h): 0%
Eos (24 h): 0.8%
Fbg (24 h): 280.8 mg/dL
Hb (24 h): 12.9 g/dL
Ht (24 h): 39.1%
Lym (24 h): 79.2%
MCH (24 h): 21.2 pg
MCHC (24 h): 33%
MCV (24 h): 64.3 fL
Mono (24 h): 2.4%
Neu (24 h): 17%
PT (24 h): 16.5 s
Plat (24 h): 120.3 x10_4/uL
RBC (24 h): 608.2 x10_4/ul
Ret (24 h): 8%
WBC (24 h): 89.7 x10_2/uL
KIDNEY_L (24 h): 0.9 g
KIDNEY_R (24 h): 0.9 g
KIDNEY_TOTAL (24 h): 1.8 g
LIVER (24 h): 9.4 g
A/G (24 h): 1.2
ALP (24 h): 1802.6 IU/L
ALT (24 h): 41.6 IU/L
AST (24 h): 71.8 IU/L
BUN (24 h): 16.8 mg/dL
CRE (24 h): 0.2 mg/dL
Ca (24 h): 11 mg/dL
Cl (24 h): 105.6 meq/L
DBIL (24 h): 0.002 mg/dL
GLC (24 h): 188 mg/dL
IP (24 h): 7.4 mg/dL
K (24 h): 4.4 meq/L
LDH (24 h): 206.4 IU/L
Na (24 h): 142.4 meq/L
PL (24 h): 149.8 mg/dL
RALB (24 h): 3 g/dL
TBIL (24 h): 0.018 mg/dL
TC (24 h): 77.8 mg/dL
TG (24 h): 92.6 mg/dL
TP (24 h): 5.4 g/dL
gamma-GTP (24 h): 1 IU/L
